In brackets after ≈: the same amount, converted by molar mass.

The first data set concerns Trichophyton mentagrophytes. Nature of the data set: Additional fungal species susceptibility testing, Trichophyton mentagrophytes. Type of data set: cell-based.
Settings: not given
How it is done:
(§1) A number of polyoxyethylene alkyl ethers were tested for fungicidal activity against Trichophyton rubrum cultures in vitro according to standard methods (see, Approved Standard M27-A, National Commitee for […] Laboratory Standards, 1997). Briefly, inocula from Trichophyton rubrum were harvested from agar cultures, suspended in 0.85% saline, and diluted to a verified final concentration of […] colony-forming units (CFU) per ml. Suspensions were then treated with various polyoxyethylene alkyl ethers at a range of concentrations, and incubated for 7 days at 30° C. Minimum inhibitory concentrations (MICs) were determined as the lowest concentration of compound that inhibited 100% of fungal growth, as compared with a polyoxyethylene alkyl ether-free control suspension. Minimum fungicidal concentrations (MFCs) were determined as the lowest concentration of compound that killed at least 97% of the original inoculum, as compared with the verified inoculum count. Trichophyton rubrum is the causative organism in 68-100% of patients in onychomycosis trials (Crawford et al. (2002) Archives Dermatol. 138:811-816). Trichophyton Mentagrophytes is the causative organism in most of the rest. Although yeast and other nondermatophytes can cause onychomycosis, the incidence is small. Additional fungal species were tested for susceptibility to treatment with Laureth-4 as described in Example 1.
The compound “Polyoxyethylene 4 lauryl ether [BRIJ 30]” gave an MFC of 625 µg/mL, an MIC80 of 5 µg/mL and an MIC100 of 625 µg/mL.

The subject of the next data set is Trichophyton rubrum. Description: Antifungal susceptibility testing (NCCLS M27-A), Trichophyton rubrum cultures in vitro. The settings on record: 7 days at 30° C. Type of data set: cell-based. How it is done:
Suspensions were then treated with various polyoxyethylene alkyl ethers at a range of concentrations, and incubated for 7 days at 30° C. […] Minimum fungicidal concentrations (MFCs) were determined as the lowest concentration of compound that killed at least 97% of the original inoculum, as compared with the verified inoculum count.
`C[C@H](CCC(=O)NCCC[N+](C)(C)CCCS(=O)(=O)[O-])[C@H]1CC[C@H]2[C@@H]3[C@H](O)C[C@@H]4C[C@H](O)CC[C@]4(C)[C@H]3C[C@H](O)[C@]12C` [CHAPS] showed an MIC80 of 500 µg/mL (≈ 813 µM).

Turning to `CCCCCCCCO[C@@H]1O[C@H](CO)[C@@H](O)[C@H](O)[C@H]1O` [n-octyl-β-D-glucopyranoside], the MIC80 amounted to 31.25 µg/mL (≈ 107 µM).

As to `CCCCCCCCS[C@@H]1O[C@H](CO)[C@@H](O)[C@H](O)[C@H]1O` [n-octyl-β-D-thioglucopyranoside], the MIC80 was 500 µg/mL (≈ 1620 µM).

Consider “Polyethylene glycol tert-octylphenyl ether [Triton X-100]”, for which the MIC80 turned out to be 31.25 µg/mL.

Polyoxyethylene 2 cetyl ether [BRIJ 52] had an MIC80 of 0.98 µg/mL.

Consider Polyoxyethylene 2 oleyl ether [BRIJ 93], for which the MIC80 is 250 µg/mL.

“Polyoxyethylene 2 stearyl ether [BRIJ 72]”: the MIC80 is 0.98 µg/mL.

Turning to “Polyoxyethylene 4 lauryl ether [BRIJ 30]”, the MIC80 was 0.98 µg/mL.

Compound “Polyoxyethylene 20 cetyl ether [BRIJ 58]” showed an MIC80 of 0.49 µg/mL. This MIC80 lies about 2-fold lower than the previous one.

Regarding “Polyoxyethylene 20 cetyl/stearyl ether [BRIJ 68]”, the MIC80 worked out at 1.95 µg/mL.

For “Polyoxyethylene 20 oleyl ether [BRIJ 98]”, the MIC80 stood at 250 µg/mL. This MIC80 lies about 130-fold higher than the previous one.

In the case of “Polyoxyethylene 20 stearyl ether [BRIJ 78]”, the MIC80 was 0.98 µg/mL.

In the case of “Polyoxyethylene 23 lauryl ether [BRIJ 35]”, the MIC80 was found to be 0.49 µg/mL. Against the preceding compound, the MIC80 is about 2-fold lower.

The compound “Polyoxyethylenesorbitan monolaurate [Tween 20]” showed an MIC80 of 125 µg/mL. This MIC80 is about 260-fold higher than that of the compound before.

In turn, “Polyoxyethylenesorbitan monooleate [Tween 80]” yielded an MIC80 of 250 µg/mL. Against the preceding compound, the MIC80 is about 2-fold higher.

The compound “Polyoxyethylenesorbitan monopalmitate [Tween 60]” came in with an MIC80 of 250 µg/mL.

The same data set, now with this note: 7 days at 30° C., lowest concentration that inhibited 100% of fungal growth.
The compound `C[C@H](CCC(=O)NCCC[N+](C)(C)CCCS(=O)(=O)[O-])[C@H]1CC[C@H]2[C@@H]3[C@H](O)C[C@@H]4C[C@H](O)CC[C@]4(C)[C@H]3C[C@H](O)[C@]12C` [CHAPS] came in with an MIC100 of 1000 µg/mL (≈ 1630 µM).

With `CCCCCCCCO[C@@H]1O[C@H](CO)[C@@H](O)[C@H](O)[C@H]1O` [n-octyl-β-D-glucopyranoside], the MIC100 was 1000 µg/mL (≈ 3420 µM).

In the case of `CCCCCCCCS[C@@H]1O[C@H](CO)[C@@H](O)[C@H](O)[C@H]1O` [n-octyl-β-D-thioglucopyranoside], the MIC100 came to 1000 µg/mL (≈ 3240 µM).

“Polyethylene glycol tert-octylphenyl ether [Triton X-100]” came in with an MIC100 of 1000 µg/mL.

For the compound Polyoxyethylene 2 cetyl ether [BRIJ 52], the MIC100 was 3.9 µg/mL.

The compound Polyoxyethylene 2 oleyl ether [BRIJ 93] displayed an MIC100 of 250 µg/mL.

For “Polyoxyethylene 2 stearyl ether [BRIJ 72]”, the MIC100 stood at 0.98 µg/mL.

In turn, “Polyoxyethylene 4 lauryl ether [BRIJ 30]” registered an MIC100 of 1.95 µg/mL.

Turning to “Polyoxyethylene 20 cetyl ether [BRIJ 58]”, the MIC100 was determined as 0.98 µg/mL.

As to “Polyoxyethylene 20 cetyl/stearyl ether [BRIJ 68]”, the MIC100 worked out at 3.9 µg/mL.

On to “Polyoxyethylene 20 oleyl ether [BRIJ 98]”, for which the MIC100 came out at 500 µg/mL.

Compound “Polyoxyethylene 20 stearyl ether [BRIJ 78]” had an MIC100 of 1.95 µg/mL.

On to “Polyoxyethylene 23 lauryl ether [BRIJ 35]”, for which the MIC100 came to 0.98 µg/mL.

Regarding “Polyoxyethylenesorbitan monolaurate [Tween 20]”, the MIC100 was determined as 500 µg/mL.

“Polyoxyethylenesorbitan monooleate [Tween 80]”: the MIC100 is 1000 µg/mL.

“Polyoxyethylenesorbitan monopalmitate [Tween 60]”: the MIC100 worked out at 500 µg/mL.

Still in this data set, the particulars now being: lowest concentration that killed at least 97% of the original inoculum.
Consider Polyoxyethylene 2 cetyl ether [BRIJ 52], for which the MFC turned out to be 7.8 µg/mL.

As for Polyoxyethylene 2 oleyl ether [BRIJ 93], the MFC was 1000 µg/mL.

“Polyoxyethylene 2 stearyl ether [BRIJ 72]” registered an MFC of 3.9 µg/mL. This MFC lies about 260-fold lower than the previous one.

Consider “Polyoxyethylene 4 lauryl ether [BRIJ 30]”, for which the MFC was found to be 1.95 µg/mL.

Regarding “Polyoxyethylene 20 cetyl ether [BRIJ 58]”, the MFC worked out at 1.95 µg/mL.

With “Polyoxyethylene 20 cetyl/stearyl ether [BRIJ 68]”, the MFC was determined as 15.6 µg/mL.

The compound “Polyoxyethylene 20 oleyl ether [BRIJ 98]” returned an MFC of 1000 µg/mL.

“Polyoxyethylene 20 stearyl ether [BRIJ 78]”: the MFC came to 3.9 µg/mL.

“Polyoxyethylene 23 lauryl ether [BRIJ 35]” registered an MFC of 1.95 µg/mL.

The compound “Polyoxyethylenesorbitan monolaurate [Tween 20]” showed an MFC of 1000 µg/mL.

On to “Polyoxyethylenesorbitan monooleate [Tween 80]”, for which the MFC turned out to be 1000 µg/mL.

The compound “Polyoxyethylenesorbitan monopalmitate [Tween 60]” came in with an MFC of 1000 µg/mL.

The same data set, now with this note: result in words.
Consider Polyoxyethylene 2 oleyl ether [BRIJ 93], for which the fungicidal effect result was “loss of the effect”.

Turning to “Polyoxyethylene 20 oleyl ether [BRIJ 98]”, the fungicidal effect entry is on record as “loss of the effect”.

A further data set relates to Aspergillus flavus. Description: Additional fungal species susceptibility testing, Aspergillus flavus. It is filed as cell-based.
Settings: not given
How it is done: as §1
Take “Polyoxyethylene 4 lauryl ether [BRIJ 30]”: the MFC is more than 5000 µg/mL, the MIC80 was found to be 39 µg/mL and the MIC100 is more than 5000 µg/mL.

The next data set deals with Fusarium solani. Nature of the data set: Additional fungal species susceptibility testing, Fusarium solani. It is filed as cell-based.
Settings: not given
How it is done: as §1
On to “Polyoxyethylene 4 lauryl ether [BRIJ 30]”, for which the MFC is more than 5000 µg/mL, the MIC80 is 78 µg/mL and the MIC100 is more than 5000 µg/mL.

Another data set relates to Scopulariopsis brevicaulis. Description: Additional fungal species susceptibility testing, Scopulariopsis brevicaulis. Type of data set: cell-based.
Settings: not given
As to the method:
as §1
For the compound “Polyoxyethylene 4 lauryl ether [BRIJ 30]”, the MFC is more than 5000 µg/mL, the MIC80 turned out to be 78 µg/mL and the MIC100 is more than 5000 µg/mL.

Tested on in another data set: not given
Experiment: not given
The conditions noted are these: critical micelle content; no method given; cited from earlier work.
Take `C[C@H](CCC(=O)NCCC[N+](C)(C)CCCS(=O)(=O)[O-])[C@H]1CC[C@H]2[C@@H]3[C@H](O)C[C@@H]4C[C@H](O)CC[C@]4(C)[C@H]3C[C@H](O)[C@]12C` [CHAPS]: the CMC is 6 to 10 mM.

On to `CCCCCCCCO[C@@H]1O[C@H](CO)[C@@H](O)[C@H](O)[C@H]1O` [n-octyl-β-D-glucopyranoside], for which the CMC was 20 to 25 mM.

As for `CCCCCCCCS[C@@H]1O[C@H](CO)[C@@H](O)[C@H](O)[C@H]1O` [n-octyl-β-D-thioglucopyranoside], the CMC is recorded as 9 mM.

“Polyethylene glycol tert-octylphenyl ether [Triton X-100]”: the CMC is 0.2 to 0.9 mM.

In the case of “Polyoxyethylene 23 lauryl ether [BRIJ 35]”, the CMC is on record as 0.09 mM.

In the case of “Polyoxyethylenesorbitan monolaurate [Tween 20]”, the CMC is 0.059 mM.

For the compound “Polyoxyethylenesorbitan monooleate [Tween 80]”, the CMC was 0.059 mM.

“Polyoxyethylenesorbitan monopalmitate [Tween 60]”: the CMC was 0.059 mM.

The next data set has as its system Candida Parapsilosis. Description: Additional fungal species susceptibility testing, Candida parapsilosis. Type of data set: cell-based.
Settings: not given
How it is done: as §1
As to “Polyoxyethylene 4 lauryl ether [BRIJ 30]”, the MFC was more than 5000 µg/mL, the MIC80 amounted to 15.5 µg/mL and the MIC100 was more than 5000 µg/mL.

The test system of the next data set is Candida Albicans. Nature of the data set: Additional fungal species susceptibility testing, Candida albicans. Type of data set: cell-based.
Settings: not given
How it is done: as §1
The compound “Polyoxyethylene 4 lauryl ether [BRIJ 30]” came in with an MFC of more than 5000 µg/mL, an MIC80 of more than 5000 µg/mL and an MIC100 of more than 5000 µg/mL.

By MFC is commonly meant the smallest concentration meeting the test's criterion for killing the fungus. A high value points to less potent killing. What is called MIC80 is the lowest concentration that inhibits either 80% of growth or 80% of the strains tested, depending on the study. Lower therefore signals greater potency.

The values above are taken from patent US20060035983A1, “Methods for treating fungal infections” (priority 2002, published 2006).
